Assay results reported in patent publication US12157741B2, “Macrocyclic inhibitors of DYRK1A” (DANA-FARBER CANCER INSTITUTE, INC., priority 2018, dated 2024).
Where two headings read alike, the source gives them in different places.

Legend:
Format in all cases: binding
various enzymes [1] = molecular target: various enzymes (Homo sapiens, UniProt P22607); settings: compound 1 uM
Experimental: (§1) Ambit profiling was conducted in accordance with the manufacturer's instructions.

various enzymes [2] = molecular target: various enzymes (Homo sapiens, UniProt Q02156); settings: compound 1 uM
Sequence of various enzymes (Homo sapiens, UniProt Q02156) (Q02156 whole entry): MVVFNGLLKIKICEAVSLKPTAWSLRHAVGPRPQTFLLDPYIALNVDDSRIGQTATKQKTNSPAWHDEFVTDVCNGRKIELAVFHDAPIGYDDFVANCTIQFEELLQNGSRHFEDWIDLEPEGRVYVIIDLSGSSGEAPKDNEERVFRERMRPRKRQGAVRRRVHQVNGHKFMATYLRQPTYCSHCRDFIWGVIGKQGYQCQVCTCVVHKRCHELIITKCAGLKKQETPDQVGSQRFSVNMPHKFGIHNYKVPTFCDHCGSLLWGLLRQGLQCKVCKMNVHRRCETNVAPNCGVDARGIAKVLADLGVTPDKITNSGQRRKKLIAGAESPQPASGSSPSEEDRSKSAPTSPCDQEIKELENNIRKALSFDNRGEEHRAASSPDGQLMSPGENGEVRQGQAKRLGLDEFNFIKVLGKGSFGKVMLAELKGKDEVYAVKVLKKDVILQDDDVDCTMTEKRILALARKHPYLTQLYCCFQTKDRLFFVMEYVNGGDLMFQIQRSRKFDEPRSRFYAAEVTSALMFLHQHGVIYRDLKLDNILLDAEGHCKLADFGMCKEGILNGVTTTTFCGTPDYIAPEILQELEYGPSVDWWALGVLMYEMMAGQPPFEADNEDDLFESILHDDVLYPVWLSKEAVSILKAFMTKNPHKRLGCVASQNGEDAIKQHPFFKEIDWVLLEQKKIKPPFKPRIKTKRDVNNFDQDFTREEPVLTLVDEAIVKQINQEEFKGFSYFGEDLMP
Experimental: as §1

various enzymes [3] = molecular target: various enzymes (Homo sapiens, UniProt P49761); settings: compound 1 uM
Experimental: as §1

various enzymes [4] = molecular target: various enzymes (Homo sapiens, UniProt P17948); settings: compound 1 uM
Experimental: as §1

various enzymes [5] = molecular target: various enzymes (Homo sapiens, UniProt Q7L7X3); settings: compound 1 uM
Sequence of various enzymes (Homo sapiens, UniProt Q7L7X3) (Q7L7X3 whole entry): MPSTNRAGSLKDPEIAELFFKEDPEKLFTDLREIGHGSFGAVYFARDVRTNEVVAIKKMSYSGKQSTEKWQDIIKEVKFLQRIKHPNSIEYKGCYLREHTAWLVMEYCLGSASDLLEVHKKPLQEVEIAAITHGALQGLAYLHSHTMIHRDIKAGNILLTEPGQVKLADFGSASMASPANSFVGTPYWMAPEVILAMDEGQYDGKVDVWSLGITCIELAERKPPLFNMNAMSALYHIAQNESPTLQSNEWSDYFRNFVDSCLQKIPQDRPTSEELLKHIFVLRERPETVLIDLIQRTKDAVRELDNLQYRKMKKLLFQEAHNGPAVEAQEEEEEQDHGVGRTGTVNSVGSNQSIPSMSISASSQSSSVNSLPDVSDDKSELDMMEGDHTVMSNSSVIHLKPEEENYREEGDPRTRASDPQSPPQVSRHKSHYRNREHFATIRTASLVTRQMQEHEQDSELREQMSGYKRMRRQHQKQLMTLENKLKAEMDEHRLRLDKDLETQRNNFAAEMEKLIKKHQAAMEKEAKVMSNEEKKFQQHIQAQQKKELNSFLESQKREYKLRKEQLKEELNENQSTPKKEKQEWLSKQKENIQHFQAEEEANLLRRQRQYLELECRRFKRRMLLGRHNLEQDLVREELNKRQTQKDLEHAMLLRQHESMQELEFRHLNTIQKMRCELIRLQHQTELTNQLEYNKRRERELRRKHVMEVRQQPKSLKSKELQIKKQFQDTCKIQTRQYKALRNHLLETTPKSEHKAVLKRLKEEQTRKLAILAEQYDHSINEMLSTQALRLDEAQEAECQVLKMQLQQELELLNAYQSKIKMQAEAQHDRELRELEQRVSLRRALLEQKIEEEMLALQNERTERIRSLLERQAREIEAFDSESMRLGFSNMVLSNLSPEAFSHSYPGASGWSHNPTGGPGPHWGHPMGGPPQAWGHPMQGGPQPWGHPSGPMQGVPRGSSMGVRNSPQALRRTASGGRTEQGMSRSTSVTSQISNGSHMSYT
Experimental: as §1

various enzymes [6] = molecular target: various enzymes (Homo sapiens, UniProt O14578); settings: compound 1 uM
Experimental: as §1

various enzymes [7] = molecular target: various enzymes (Homo sapiens, UniProt P08581); settings: compound 1 uM
Experimental: as §1

various enzymes [8] = molecular target: various enzymes (Homo sapiens, UniProt O43318); settings: compound 1 uM
Experimental: as §1

various enzymes [9] = molecular target: various enzymes (Homo sapiens, UniProt Q13131); settings: compound 1 uM
Experimental: as §1

various enzymes [10] = molecular target: various enzymes (Homo sapiens, UniProt Q9Y2H9); settings: compound 1 uM
Experimental: as §1

various enzymes [11] = molecular target: various enzymes (Homo sapiens, UniProt Q8TDR2); settings: compound 1 uM
Experimental: as §1

various enzymes [12] = molecular target: various enzymes (Homo sapiens, UniProt Q9H4A3); settings: compound 1 uM
Experimental: as §1

various enzymes [13] = molecular target: various enzymes (Homo sapiens, UniProt P12931); settings: compound 1 uM
Experimental: as §1

various enzymes [14] = molecular target: various enzymes (Homo sapiens, UniProt O43293); settings: compound 1 uM
Experimental: as §1

various enzymes [15] = molecular target: various enzymes (Homo sapiens, UniProt P0C1S8); settings: compound 1 uM
Experimental: as §1

various enzymes [16] = molecular target: various enzymes (Homo sapiens, UniProt Q96SB4); settings: compound 1 uM
Sequence of various enzymes (Homo sapiens, UniProt Q96SB4) (Q96SB4 whole entry): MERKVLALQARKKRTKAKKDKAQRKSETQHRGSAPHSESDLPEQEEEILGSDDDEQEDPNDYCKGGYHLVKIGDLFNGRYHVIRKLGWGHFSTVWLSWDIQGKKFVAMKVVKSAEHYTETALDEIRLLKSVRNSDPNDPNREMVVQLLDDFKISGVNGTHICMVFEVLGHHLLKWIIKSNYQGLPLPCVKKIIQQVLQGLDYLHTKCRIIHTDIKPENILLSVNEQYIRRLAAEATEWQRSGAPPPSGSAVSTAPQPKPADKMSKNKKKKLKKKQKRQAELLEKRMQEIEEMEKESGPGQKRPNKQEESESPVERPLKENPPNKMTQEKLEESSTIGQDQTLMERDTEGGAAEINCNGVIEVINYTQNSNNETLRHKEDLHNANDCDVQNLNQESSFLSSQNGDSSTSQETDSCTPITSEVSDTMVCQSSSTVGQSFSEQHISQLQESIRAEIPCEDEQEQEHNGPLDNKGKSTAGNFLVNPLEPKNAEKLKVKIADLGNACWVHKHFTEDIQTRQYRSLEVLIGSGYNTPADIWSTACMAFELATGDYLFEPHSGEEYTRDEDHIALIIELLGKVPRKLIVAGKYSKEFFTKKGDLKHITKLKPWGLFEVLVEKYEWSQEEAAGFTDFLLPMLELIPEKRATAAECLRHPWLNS
Experimental: as §1

various enzymes [17] = molecular target: various enzymes (Homo sapiens, UniProt P52564); settings: compound 1 uM
Experimental: as §1

various enzymes [18] = molecular target: various enzymes (Homo sapiens, UniProt Q15835); settings: compound 1 uM
Experimental: as §1

various enzymes [19] = molecular target: various enzymes (Homo sapiens, UniProt Q96PY6); settings: compound 1 uM
Experimental: as §1

various enzymes [20] = molecular target: various enzymes (Homo sapiens, UniProt Q9Y2K2); settings: compound 1 uM
Experimental: as §1

various enzymes [21] = molecular target: various enzymes (Homo sapiens, UniProt Q13164); settings: compound 1 uM
Experimental: as §1

various enzymes [22] = molecular target: various enzymes (Homo sapiens, UniProt P53667); settings: compound 1 uM
Experimental: as §1

various enzymes [23] = molecular target: various enzymes (Homo sapiens, UniProt O95747); settings: compound 1 uM
Experimental: as §1

various enzymes [24] = molecular target: various enzymes (Homo sapiens, UniProt P49674); settings: compound 1 uM
Experimental: as §1

various enzymes [25] = molecular target: various enzymes (Homo sapiens, UniProt O15075); settings: compound 1 uM
Sequence of various enzymes (Homo sapiens, UniProt O15075) (O15075 whole entry): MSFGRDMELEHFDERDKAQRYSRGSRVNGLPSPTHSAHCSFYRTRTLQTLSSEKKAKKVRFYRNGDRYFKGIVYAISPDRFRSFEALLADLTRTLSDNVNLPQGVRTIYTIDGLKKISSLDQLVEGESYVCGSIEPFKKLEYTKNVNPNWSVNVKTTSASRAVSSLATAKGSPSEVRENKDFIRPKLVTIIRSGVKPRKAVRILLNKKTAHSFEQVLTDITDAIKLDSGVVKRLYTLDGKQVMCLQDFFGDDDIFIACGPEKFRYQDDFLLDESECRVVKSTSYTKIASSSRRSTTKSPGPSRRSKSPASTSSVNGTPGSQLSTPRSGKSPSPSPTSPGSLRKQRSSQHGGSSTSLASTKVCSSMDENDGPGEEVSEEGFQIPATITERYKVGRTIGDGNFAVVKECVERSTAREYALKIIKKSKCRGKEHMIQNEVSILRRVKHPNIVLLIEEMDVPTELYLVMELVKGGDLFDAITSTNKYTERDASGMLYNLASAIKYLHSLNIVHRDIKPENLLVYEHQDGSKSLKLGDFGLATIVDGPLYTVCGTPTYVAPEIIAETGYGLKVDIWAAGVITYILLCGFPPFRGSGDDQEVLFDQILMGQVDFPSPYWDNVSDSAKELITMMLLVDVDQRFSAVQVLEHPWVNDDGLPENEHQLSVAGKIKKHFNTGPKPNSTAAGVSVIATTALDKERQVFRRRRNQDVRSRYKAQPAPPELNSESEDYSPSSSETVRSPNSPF
Experimental: as §1

various enzymes [26] = molecular target: T1, various enzymes (Homo sapiens, UniProt Q08881); settings: compound 1 uM
T1 sequence (Q08881 1-620): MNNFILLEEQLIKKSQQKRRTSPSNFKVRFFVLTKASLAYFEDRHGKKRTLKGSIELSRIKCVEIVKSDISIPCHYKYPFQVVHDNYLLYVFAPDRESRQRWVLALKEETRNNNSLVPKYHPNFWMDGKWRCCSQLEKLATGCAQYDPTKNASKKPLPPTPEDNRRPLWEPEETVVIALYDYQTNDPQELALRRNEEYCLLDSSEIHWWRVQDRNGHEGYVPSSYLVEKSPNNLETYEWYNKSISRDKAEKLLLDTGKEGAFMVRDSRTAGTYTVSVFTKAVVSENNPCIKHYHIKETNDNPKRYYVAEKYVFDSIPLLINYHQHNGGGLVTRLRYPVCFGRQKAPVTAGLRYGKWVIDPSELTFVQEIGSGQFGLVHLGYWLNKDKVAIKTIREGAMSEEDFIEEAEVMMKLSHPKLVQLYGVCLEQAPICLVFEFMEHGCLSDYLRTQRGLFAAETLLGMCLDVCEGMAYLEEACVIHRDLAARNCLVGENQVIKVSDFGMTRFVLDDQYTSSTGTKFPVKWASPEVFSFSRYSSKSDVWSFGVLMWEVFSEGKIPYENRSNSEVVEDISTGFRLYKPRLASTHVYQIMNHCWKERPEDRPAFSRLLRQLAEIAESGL
Experimental: as §1

various enzymes [27] = molecular target: various enzymes (Homo sapiens, UniProt Q14164); settings: compound 1 uM
Experimental: as §1

various enzymes [28] = molecular target: various enzymes (Homo sapiens, UniProt P00519); settings: compound 1 uM
Sequence of various enzymes (Homo sapiens, UniProt P00519) (P00519 whole entry): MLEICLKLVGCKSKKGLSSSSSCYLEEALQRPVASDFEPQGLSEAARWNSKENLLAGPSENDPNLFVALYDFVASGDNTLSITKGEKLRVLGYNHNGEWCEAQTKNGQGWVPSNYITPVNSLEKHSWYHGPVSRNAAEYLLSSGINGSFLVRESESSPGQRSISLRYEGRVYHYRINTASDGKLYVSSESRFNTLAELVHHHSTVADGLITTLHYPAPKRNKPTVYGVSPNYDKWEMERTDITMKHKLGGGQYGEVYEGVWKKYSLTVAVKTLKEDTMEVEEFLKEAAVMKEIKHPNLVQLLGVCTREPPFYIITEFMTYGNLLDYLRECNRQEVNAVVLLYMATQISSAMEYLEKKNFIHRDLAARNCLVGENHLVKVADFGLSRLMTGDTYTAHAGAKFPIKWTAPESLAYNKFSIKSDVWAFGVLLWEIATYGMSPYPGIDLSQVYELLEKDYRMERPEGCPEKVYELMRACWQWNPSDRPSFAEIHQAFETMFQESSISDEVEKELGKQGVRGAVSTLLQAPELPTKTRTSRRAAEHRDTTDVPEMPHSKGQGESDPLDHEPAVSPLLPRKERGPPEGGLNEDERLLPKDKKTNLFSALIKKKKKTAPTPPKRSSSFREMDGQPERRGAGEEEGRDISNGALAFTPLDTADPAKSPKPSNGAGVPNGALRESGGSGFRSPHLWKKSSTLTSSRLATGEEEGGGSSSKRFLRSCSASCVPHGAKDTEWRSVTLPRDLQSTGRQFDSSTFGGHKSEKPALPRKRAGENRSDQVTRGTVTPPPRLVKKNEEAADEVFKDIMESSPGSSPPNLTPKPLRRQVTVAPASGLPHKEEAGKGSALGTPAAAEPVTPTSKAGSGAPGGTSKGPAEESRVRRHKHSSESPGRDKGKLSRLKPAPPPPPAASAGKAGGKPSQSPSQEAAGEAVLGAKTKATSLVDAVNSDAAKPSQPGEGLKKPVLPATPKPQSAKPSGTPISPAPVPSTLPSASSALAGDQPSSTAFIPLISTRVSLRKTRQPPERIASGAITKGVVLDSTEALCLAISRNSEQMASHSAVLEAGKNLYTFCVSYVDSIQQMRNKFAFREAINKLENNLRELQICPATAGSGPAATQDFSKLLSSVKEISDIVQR
Experimental: as §1

various enzymes [29] = molecular target: various enzymes (Homo sapiens, UniProt Q86V86); settings: compound 1 uM
Experimental: as §1

various enzymes [30] = molecular target: various enzymes (Homo sapiens, UniProt Q8IWQ3); settings: compound 1 uM
Experimental: as §1

various enzymes [31] = molecular target: various enzymes (Homo sapiens, UniProt P27037); settings: compound 1 uM
Sequence of various enzymes (Homo sapiens, UniProt P27037) (P27037 20-513): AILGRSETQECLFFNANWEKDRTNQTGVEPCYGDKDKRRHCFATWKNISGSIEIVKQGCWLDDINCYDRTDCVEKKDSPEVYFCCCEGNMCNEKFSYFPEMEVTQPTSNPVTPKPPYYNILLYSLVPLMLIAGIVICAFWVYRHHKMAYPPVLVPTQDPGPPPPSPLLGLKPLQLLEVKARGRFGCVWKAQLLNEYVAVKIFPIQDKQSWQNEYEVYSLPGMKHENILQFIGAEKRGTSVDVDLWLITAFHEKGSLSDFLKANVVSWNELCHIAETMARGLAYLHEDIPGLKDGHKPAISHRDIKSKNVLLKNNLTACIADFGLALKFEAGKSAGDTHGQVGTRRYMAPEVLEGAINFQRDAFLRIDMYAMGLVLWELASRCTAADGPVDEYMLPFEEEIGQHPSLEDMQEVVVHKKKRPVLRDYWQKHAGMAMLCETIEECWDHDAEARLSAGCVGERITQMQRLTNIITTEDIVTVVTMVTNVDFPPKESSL
Experimental: as §1

various enzymes [32] = molecular target: various enzymes (Homo sapiens, UniProt Q9Y5S2); settings: compound 1 uM
Experimental: as §1

various enzymes [33] = molecular target: various enzymes (Homo sapiens, UniProt Q9UL54); settings: compound 1 uM
Experimental: as §1

various enzymes [34] = molecular target: various enzymes (Homo sapiens, UniProt Q15759); settings: compound 1 uM
Experimental: as §1

various enzymes [35] = molecular target: various enzymes (Homo sapiens, UniProt P36888, D835V)
Experimental: as §1

SMILES	Ambit profiling: FGFR3 (various enzymes [1])	Ambit profiling: PRKCE (various enzymes [2])	Ambit profiling: CLK3 (various enzymes [3])	Ambit profiling: FLT1 (various enzymes [4])	Ambit profiling: TAOK1 (various enzymes [5])	Ambit profiling: CIT (various enzymes [6])	Ambit profiling: MET (various enzymes [7])	Ambit profiling: TAK1 (various enzymes [8])	Ambit profiling: AMPK-alpha1 (various enzymes [9])	Ambit profiling: MAST1 (various enzymes [10])	Ambit profiling: STK35 (various enzymes [11])	Ambit profiling: WNK1 (various enzymes [12])	Ambit profiling: SRC (various enzymes [13])	Ambit profiling: DAPK3 (various enzymes [14])	Ambit profiling: WEE2 (various enzymes [15])	Ambit profiling: SRPK1 (various enzymes [16])	Ambit profiling: MEK6 (various enzymes [17])	Ambit profiling: GRK1 (various enzymes [18])	Ambit profiling: NEK1 (various enzymes [19])	Ambit profiling: QSK (various enzymes [20])	other results
CC(C)N1Cc2nn(C)cc2-c2cnc3[nH]cc(c3c2)-c2cn(nc2C(F)(F)F)CCCC1=O [Compound 45, (Z)-5-isopropyl-31-methyl-13-(trifluoromethyl)-11H,21H,31H-5-aza-2(3,5)-pyrrolo[2,3-b]pyridina-1(4,1),3(4,3)-dipyrazolacyclononaphan-6-one]	5.4	90	33	5.4	8.8	17	11	4.1	50	22	100	100	25	99	100	4.5	15	17	100	32	Ambit profiling: ERK5 (various enzymes [21]): 100; Ambit profiling: LIMK1 (various enzymes [22]): 93; Ambit profiling: OSR1 (various enzymes [23]): 100; Ambit profiling: CSNK1E (various enzymes [24]): 23; Ambit profiling: DCAMKL1 (various enzymes [25]): 80; Ambit profiling: ITK (various enzymes [26]): 38; Ambit profiling: IKK-epsilon (various enzymes [27]): 40; Ambit profiling: ABL1-nonphosphorylated (various enzymes [28]): 20; Ambit profiling: ABL1-phosphorylated (various enzymes [28]): 9; Ambit profiling: PIM3 (various enzymes [29]): 94; Ambit profiling: BRSK2 (various enzymes [30]): 64; Ambit profiling: ACVR2A (various enzymes [31]): 100; Ambit profiling: MRCKB (various enzymes [32]): 86; Ambit profiling: TAOK2 (various enzymes [33]): 28; Ambit profiling: p38-beta (various enzymes [34]): 100; Ambit profiling: FLT3(D835V) (various enzymes [35]; compound 1 uM): 0
COc1c2c(nn1C)CN(C(C)C)C(=O)CCCn1cc(c(C(F)(F)F)n1)-c1c[nH]c3ncc-2cc13 [Compound 50, (Z)-5-isopropyl-35-methoxy-31-methyl-13-(trifluoromethyl)-11H,21H,31H-5-aza-2(3,5)-pyrrolo[2,3-b]pyridina-1(4,1),3(4,3)-dipyrazolacyclononaphan-6-one]	7.6	30	26	5.9	82	31	3.8	9.1	90	40	94	100	13	71	73	30	45	44	71	73	Ambit profiling: ERK5 (various enzymes [21]): 70; Ambit profiling: LIMK1 (various enzymes [22]): 91; Ambit profiling: OSR1 (various enzymes [23]): 100; Ambit profiling: CSNK1E (various enzymes [24]): 13; Ambit profiling: DCAMKL1 (various enzymes [25]): 54; Ambit profiling: ITK (various enzymes [26]): 46; Ambit profiling: IKK-epsilon (various enzymes [27]): 19; Ambit profiling: ABL1-nonphosphorylated (various enzymes [28]): 11; Ambit profiling: ABL1-phosphorylated (various enzymes [28]): 3.8; Ambit profiling: PIM3 (various enzymes [29]): 91; Ambit profiling: BRSK2 (various enzymes [30]): 72; Ambit profiling: ACVR2A (various enzymes [31]): 96; Ambit profiling: MRCKB (various enzymes [32]): 99; Ambit profiling: TAOK2 (various enzymes [33]): 69; Ambit profiling: p38-beta (various enzymes [34]): 83; Ambit profiling: FLT3(D835V) (various enzymes [35]): 0
